Assay results reported in patent US8299067B2, “5-demethoxyfumagillol and derivatives thereof” (Versitech Limited, priority 2008, dated 2012).

What was measured:
[1] = molecular target: T1, Recombinant human MetAP-2 (Homo sapiens, UniProt P50579); test: MetAP-2 enzymatic assay; type: biochemical; settings: 1 nM purified human MetAP-2, inhibitor incubated at 37° C. for 30 minutes, 1 mM Met-Gly-Met-Met, released methionine
T1 construct: made in house; host or cells: insect cells
Method: (B) MetAP-2 Enzymatic Assay Recombinant human MetAP-2 was expressed and purified from insect cells as previously described (Li, X.; Chang, Y.-H. Biochem. Biophys. Res. Commun. 1996, 227, 152). […] To start the enzymatic reaction, […] was added to a concentration of 1 mM to the reaction mixture. Released methionine was quantified at different time points (0, 2, 3 and 5 min) using the method of Zuo et al (Zuo, S.; Guo, Q.; Ling, C.; Chang, Y-.H. Mol. Gen. Genet. 1995, 246, 247).

[2] = tested on: bovine arotic endothelial cells (BAEC); test: BAEC proliferation assay; type: cell-based; settings: tritiated thymidine incorporation, 24 hours drug plus 6 hours label, 0.5% DMSO
Method: (A) BAEC Proliferation Assay
About 2500 bovine arotic endothelial cells (BAEC) in 195 μl of DMEM (Dulbecco's Modified Eagle's Medium) were plated per well of a 96-well plate and grown at 37° C. and 5% CO2. Cells were allowed to recover for 12 hours. 1 μL of 200 times drug stock solution was added to each treatment well. The final vehicle (DMSO) concentration was 0.5%. Vehicle only was used as a control for maximum proliferation. Three wells were treated for each drug concentration. After 24 hours, 1 μCi of tritiated thymidine (diluted in DMEM to a total volume of 10 μL) was added to each well. After additional 6 hours incubation, each well was washed in 180 μl of PBS buffer. 70 μL of trypsin was added to each well. Plates were incubated for 5 minutes at 37° C. Cells were harvested using a Harvester 96 Mach III M (Tomtec) and transferred to glass fiber filters (Wallac). 6 mL of Betaplate Scint (PerkinElmer) was added to each filter in a sealed sample bag. Scintillation counting was done in using a 1450 MicroBeta counter (Wallac). CPM were normalized to vehicle control, averaged across three replicates, and fit to the following equation using GraphPadPrism v4.0: Y=Bottom+(Top-Bottom)/(1+10^((Log EC50−X)*HillSlope)) wherein X is the logarithm of concentration and Y is the response. Y started at Bottom and went to Top with a sigmoid shape. The bottom value was constrained to zero.

T1 sequence (P50579 whole entry): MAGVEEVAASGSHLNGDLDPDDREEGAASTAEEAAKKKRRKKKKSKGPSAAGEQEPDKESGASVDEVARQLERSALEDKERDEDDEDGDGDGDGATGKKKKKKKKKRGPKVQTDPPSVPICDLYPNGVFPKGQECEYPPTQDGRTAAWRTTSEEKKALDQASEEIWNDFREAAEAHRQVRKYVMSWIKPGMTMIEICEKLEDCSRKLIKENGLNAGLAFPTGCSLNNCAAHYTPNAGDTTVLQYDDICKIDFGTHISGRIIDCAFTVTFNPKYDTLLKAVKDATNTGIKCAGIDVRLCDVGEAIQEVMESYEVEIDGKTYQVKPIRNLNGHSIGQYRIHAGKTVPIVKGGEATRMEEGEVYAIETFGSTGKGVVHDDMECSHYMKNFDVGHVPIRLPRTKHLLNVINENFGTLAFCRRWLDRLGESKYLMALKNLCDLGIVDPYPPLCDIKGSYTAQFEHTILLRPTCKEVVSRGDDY

Row | IC50 [1] | SMILES | IC50 ([2]; Bos taurus, BAEC, 30 h) | IC50 [2]
1 |  | CC(C)=CC[C@H]1O[C@]1(C)[C@H]1C[C@H](OC(=O)N2CCOCC2)CC[C@]12CO2 [Compound 17z] | 0.048 nM | 
2 |  | CC(C)=CC[C@H]1O[C@]1(C)[C@H]1C[C@H](OC(=O)N2CCC2)CC[C@]12CO2 [Compound 17r] | 0.038 nM | 
3 |  | CC(C)=CC[C@H]1O[C@]1(C)[C@H]1C[C@H](OC(=O)Nc2nccs2)CC[C@]12CO2 [Compound 17ac] | 0.038 nM | 
4 |  | CC(C)=CC[C@H]1O[C@]1(C)[C@H]1C[C@H](OC(=O)N2CCCC2)CC[C@]12CO2 [Compound 17s] | 0.04 nM | 
5 | 42 nM | CC(C)=CC[C@H]1O[C@]1(C)[C@H]1C[C@H](OC(=O)N[C@@H](C(N)=O)c2ccccc2)CC[C@]12CO2 [Compound 17e] | 0.085 nM | 
6 | 47 nM | C=CCNC(=O)[C@H](Cc1ccccc1)NC(=O)O[C@@H]1CC[C@]2(CO2)[C@@H]([C@@]2(C)O[C@@H]2CC=C(C)C)C1 [Compound 17i] | 0.059 nM | 
7 |  | CC(C)=CC[C@H]1O[C@]1(C)[C@H]1C[C@H](OC(=O)N2CCN(C)CC2)CC[C@]12CO2 [Compound 17u] | 0.089 nM | 
8 | 29 nM | CC(C)=CC[C@H]1O[C@]1(C)[C@H]1C[C@H](OC(=O)N[C@@H](C(N)=O)C(C)C)CC[C@]12CO2 [Compound 17a] | 0.21 nM | 
9 | 11 nM | COc1ccc(CNC(=O)[C@H](Cc2ccccc2)NC(=O)O[C@@H]2CC[C@]3(CO3)[C@@H]([C@@]3(C)O[C@@H]3CC=C(C)C)C2)cc1 [Compound 17m] | 0.19 nM | 
10 | 28 nM | CC(C)=CC[C@H]1O[C@]1(C)[C@H]1C[C@H](OC(=O)N[C@H](C(=O)NC2CCCC2)C(C)C)CC[C@]12CO2 [Compound 17o] | 0.035 nM | 
11 |  | C=CCN1CCN(C(=O)O[C@@H]2CC[C@]3(CO3)[C@@H]([C@@]3(C)O[C@@H]3CC=C(C)C)C2)CC1 [Compound 17x] | 0.047 nM | 
12 | 975 nM | CC(C)=CCC1OC1(C)C1CC(O)CCC12CO2 (stereo not shown) [5-Demethoxyfumagillol, 5-demethoxyfumagillol] |  | 0.28 nM
13 |  | CC(C)=CC[C@H]1O[C@]1(C)[C@H]1C[C@H](OC(=O)N2CCN(c3ccc(F)cc3)CC2)CC[C@]12CO2 [Compound 17v] | 0.068 nM | 
14 |  | CC(C)=CC[C@H]1O[C@]1(C)[C@H]1C[C@H](OC(=O)N2CCN(CC3CCCCC3)CC2)CC[C@]12CO2 [Compound 17w] | 0.074 nM | 
15 | 27 nM | COC(=O)[C@@H](NC(=O)O[C@@H]1CC[C@]2(CO2)[C@@H]([C@@]2(C)O[C@@H]2CC=C(C)C)C1)C(C)C [Compound 17p] | 0.062 nM | 
16 |  | CC(C)=CC[C@H]1O[C@]1(C)[C@H]1C[C@H](OC(=O)N2CCCCC2)CC[C@]12CO2 [Compound 17t] | 0.081 nM | 
17 | 19 nM | CC(C)=CC[C@H]1O[C@]1(C)[C@H]1C[C@H](OC(=O)N[C@H](C(=O)NC2CC2)C(C)C)CC[C@]12CO2 [Compound 17n] | 0.031 nM | 
18 | 39 nM | CC(C)=CC[C@H]1O[C@]1(C)[C@H]1C[C@H](OC(=O)N[C@H](CC(C)C)C(N)=O)CC[C@]12CO2 [Compound 17f] | 0.092 nM | 
19 | 50 nM | CC(C)=CC[C@H]1O[C@]1(C)[C@H]1C[C@H](OC(=O)N[C@H](C(N)=O)C(C)C)CC[C@]12CO2 [Compound 17b] | 0.11 nM | 
20 |  | CC(C)=CC[C@H]1O[C@]1(C)[C@H]1C[C@H](OC(=O)NN2CCCCC2)CC[C@]12CO2 [Compound 17ab] | 0.04 nM | 
21 | 44 nM | CC(C)=CC[C@H]1O[C@]1(C)[C@H]1C[C@H](OC(=O)N[C@@H](Cc2ccccc2)C(=O)N2CCOCC2)CC[C@]12CO2 [Compound 17h] | 0.079 nM | 
22 |  | CC(C)=CC[C@H]1O[C@]1(C)[C@H]1C[C@H](OC(=O)N2CCN(C3CCCC3)CC2)CC[C@]12CO2 [Compound 17y] | 0.031 nM | 
23 | 21 nM | C#CCNC(=O)[C@@H](Cc1ccccc1)NC(=O)O[C@@H]1CC[C@]2(CO2)[C@@H]([C@@]2(C)O[C@@H]2CC=C(C)C)C1 [Compound 17l] | 0.051 nM | 
24 | 12 nM | CC(C)=CC[C@H]1O[C@]1(C)[C@H]1C[C@H](OC(=O)N[C@@H](Cc2ccccc2)C(=O)N2CCN(Cc3ccc(F)cc3)CC2)CC[C@]12CO2 [Compound 17k] | 0.21 nM | 
25 | 26 nM | CC(C)=CC[C@H]1O[C@]1(C)[C@H]1C[C@H](OC(=O)N2CCN(c3ccc([N+](=O)[O-])cc3)CC2)CC[C@]12CO2 [Compound 17q] | 0.02 nM | 

Row | SMILES | IC50 [1] | IC50 ([2]; Bos taurus, BAEC, 30 h) | IC50 [2]
26 | CC(C)=CC[C@H]1O[C@]1(C)[C@H]1C[C@H](OC(=O)N[C@H](Cc2ccccc2)C(N)=O)CC[C@]12CO2 [Compound 17c] | 16 nM | 0.039 nM | 
27 | CC(C)=CC[C@H]1O[C@]1(C)[C@H]1C[C@H](OC(=O)N[C@@H](Cc2ccccc2)C(N)=O)CC[C@]12CO2 [Compound 17d] | 56 nM | 0.067 nM | 
28 | CO[C@@H]1[C@H](O)CC[C@]2(CO2)[C@H]1[C@@]1(C)O[C@@H]1CC=C(C)C [Fumagillol] | 909 nM |  | 2.04 nM
29 | CC(C)=CC[C@H]1O[C@]1(C)[C@H]1C[C@H](OC(=O)N[C@@H](Cc2ccccc2)C(=O)NC2CC2)CC[C@]12CO2 [Compound 17j] | 41 nM | 0.027 nM | 
30 | CC(C)=CC[C@H]1O[C@]1(C)[C@H]1C[C@H](OC(=O)N[C@@H](Cc2ccccc2)C(=O)NCCCN=[N+]=[N-])CC[C@]12CO2 [Compound 17g] | 41 nM | 1.41 nM | 
